According to ChEMBL document CHEMBL3217664, “Synthesis and biological evaluation of 4-chlorocolchicine derivatives as potent anticancer agents with broad effective dosage ranges” (Medchemcomm, 2012):

How the values were obtained:
[1] = system: HCT-116; assay: Antitumor activity against human HCT116 cells xenografted in BALB/c mouse assessed as tumor growth inhibition at 5 mg/kg/day, iv administered on day 1, 5 and 9 relative to control; assay type: functional; details: HCT-116, 24 h, read-out: TGI
[2] = system: HCT-116; assay: Antitumor activity against human HCT116 cells xenografted in BALB/c mouse assessed as tumor growth inhibition at 2.5 mg/kg/day, iv administered on day 1, 5 and 9 relative to control; assay type: functional; details: HCT-116, 24 h, read-out: TGI
[3] = system: Mus musculus; assay: Toxicity in BALB/c mouse assessed as mortality at 5 mg/kg/day, iv administered on day 1, 5 and 9; assay type: organism-based; parameters: route intravenous; details: in vivo
[4] = system: Mus musculus; assay: Toxicity in BALB/c mouse assessed as mortality at 2.5 mg/kg/day, iv administered on day 1, 5 and 9; assay type: organism-based; parameters: route intravenous; details: in vivo
[5] = system: A549; assay: Cytotoxicity against human A549 cells after 96 hrs by microplate reader analysis; assay type: functional, cell-based; details: A549, 96 h
[6] = system: HT-29; assay: Cytotoxicity against human HT-29 cells after 96 hrs by microplate reader analysis; assay type: functional, cell-based; details: HT-29, 96 h
[7] = system: HCT-116; assay: Cytotoxicity against human HCT116 cells after 96 hrs by microplate reader analysis; assay type: functional, cell-based; details: HCT-116, 96 h
[8] = system: Liver; assay: Metabolic stability in BALB/c mouse liver microsomes at 1 umol/l by LC-MS/MS analysis; assay type: ADME; details: 1 µM
[9] = system: HCT-116; assay: Antitumor activity against human HCT116 cells xenografted in BALB/c mouse assessed as tumor growth inhibition at 20 mg/kg/day, iv administered on day 1, 5 and 9 relative to control; assay type: functional; details: HCT-116, 24 h, read-out: TGI
[10] = system: HCT-116; assay: Antitumor activity against human HCT116 cells xenografted in BALB/c mouse assessed as tumor growth inhibition at 40 mg/kg/day, iv administered on day 1, 5 and 9 relative to control; assay type: functional; details: HCT-116, 24 h, read-out: TGI
[11] = system: Mus musculus; assay: Toxicity in BALB/c mouse assessed as mortality at 20 mg/kg/day, iv administered on day 1, 5 and 9; assay type: organism-based; parameters: route intravenous; details: in vivo
[12] = system: Mus musculus; assay: Toxicity in BALB/c mouse assessed as mortality at 40 mg/kg/day, iv administered on day 1, 5 and 9; assay type: organism-based; parameters: route intravenous; details: in vivo
[13] = system: HCT-116; assay: Antitumor activity against human HCT116 cells xenografted in BALB/c mouse assessed as tumor growth inhibition at 50 mg/kg/day, iv administered on day 1, 5 and 9 relative to control; assay type: functional; details: HCT-116, 24 h, read-out: TGI
[14] = system: HCT-116; assay: Antitumor activity against human HCT116 cells xenografted in BALB/c mouse assessed as tumor growth inhibition at 100 mg/kg/day, iv administered on day 1, 5 and 9 relative to control; assay type: functional; details: HCT-116, 24 h, read-out: TGI
[15] = system: Mus musculus; assay: Toxicity in BALB/c mouse assessed as mortality at 50 mg/kg/day, iv administered on day 1, 5 and 9; assay type: organism-based; parameters: route intravenous; details: in vivo
[16] = system: Mus musculus; assay: Toxicity in BALB/c mouse assessed as mortality at 100 mg/kg/day, iv administered on day 1, 5 and 9; assay type: organism-based; parameters: route intravenous; details: in vivo

| Compound | inhibition in vivo at 5 mg/kg/day [1] | inhibition in vivo at 2.5 mg/kg/day [2] | Activity [3] | Activity [4] | IC50 [5] | IC50 [6] | IC50 [7] | Stability [8] | inhibition in vivo at 20 mg/kg/day [9] | inhibition in vivo at 40 mg/kg/day [10] | Activity [11] | Activity [12] | inhibition in vivo at 50 mg/kg/day [13] | inhibition in vivo at 100 mg/kg/day [14] | Activity [15] | Activity [16] |
| --- | --- | --- | --- | --- | --- | --- | --- | --- | --- | --- | --- | --- | --- | --- | --- | --- |
| COc1c(Cl)c2c(c(OC)c1OC)-c1ccc(OC)c(=O)cc1[C@@H](NC(=O)c1cccc(N(C)C)c1)CC2 | 25.3% | 31.4% | Non-toxic | Non-toxic | 6.4 nM | 1.4 nM | 1.6 nM | 122 µL/min/mg | – | – | – | – | – | – | – | – |
| COc1c(Cl)c2c(c(OC)c1OC)-c1ccc(OC)c(=O)cc1[C@@H](NC(=O)CO)CC2 | – | – | – | – | 16.3 nM | 8 nM | 8.2 nM | 1 µL/min/mg | 43.6% | 66.7% | Non-toxic | Non-toxic | – | – | – | – |
| COc1c(Cl)c2c(c(OC)c1OC)-c1ccc(OC)c(=O)cc1[C@@H](NC(=O)C(C)(C)O)CC2 | – | – | – | – | 19.4 nM | 7.8 nM | 8.1 nM | 5 µL/min/mg | – | – | – | – | 58.5% | 67.3% | Non-toxic | Non-toxic |
